For orientation: Papp A→B means the apparent permeability from the apical to the basolateral side of a cell layer. Higher therefore signals ready permeation.

We go through two compounds from US7163696B2, “Pharmaceutical formulations” (Pfizer Inc., priority 2001, dated 2007).

The nature of data set [1]: Measurement of Papp values across Caco-2 cell monolayers (Example 15). Conditions: human, initial concentration in donor (apical) chamber 25 μM, 37° C. The data set is classed as in vitro ADME. From the text:
P Artursson and J Karlsson described the use of monolayers of Caco-2 cells to generate apparent permeability coefficients (Papp values) for drug absorption across the intestinal epithelium in ‘Correlation between oral drug absorption in humans and apparent drug permeability coefficients in human intestinal epithelial (Caco-2) cells’, Biochemical and Biophysical Research Communications, Vol 175 (3), pp 880–885, 1991.
Preferably, when measuring the Papp value, the initial concentration of test compound in the donor chamber is at a relevant therapeutic concentration, for example 25 μM.
Caco-2 cells originating from a human colon carcinoma were obtained from the ATCC (HTB-37) and were used between passage number 24–44. Cells were maintained in MEM with Earles salts containing 2 mM L-glutamine, 1 mM sodium pyruvate, 1% (v/v) MEM non-essential amino acids (Gibco) and 20% foetal calf serum (Sigma) at 37° C. in an atmosphere of 5% CO2 and 90% relative humidity. Falcon 24 well filter inserts (Becton Dickinson) were seeded with 4×10^4 cells/well. […]
Transport data across the Caco-2 cell monolayers is expressed as Papp values. Papp values are calculated according to the equation disclosed by Artursson and Karlsson as follows: Papp=(dQ/dt)(1/AC0), wherein dQ/dt is the permeability rate, Co the initial concentration in the donor chamber, and A the surface area of the monolayer.

Data set [2] can be described thus: Bioavailability testing by the applicants (unpublished). Conditions: in vivo.

The compound `COc1cc2nc(N3CCc4c(cccc4NS(C)(=O)=O)C3)nc(N)c2c(-c2ccccn2)c1OC.CS(=O)(=O)O` [4-amino-6,7-dimethoxy-2-(5-methanesulfonamido-1,2,3,4-tetrahydroisoquinol-2-yl)-5-(2-pyridyl)quinazoline mesylate] had a Papp A→B at 2 h, 25 μM in data set [1] of 11 ×10⁻⁶ cm/s. As for `COc1cc2nc(N3CCc4c(cccc4NS(C)(=O)=O)C3)nc(N)c2c(-c2ccccn2)c1OC` [4-amino-6,7-dimethoxy-2-(5-methanesulfonamido-1,2,3,4-tetrahydroisoquinol-2-yl)-5-(2-pyridyl)quinazoline], the “absorption from the colon” value in data set [2] was “low, and highly variable”.
